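1) Cells in 96-well plates. 2) Compound, 48 h, 5 concentrations. 3) Linear interpolation between surrounding doses. 4) Unreached endpoint = highest concentration. At the GI50, growth is halved.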 Calls of active or inactive are those of the source. No stated cut-off is given here; in the data, active = GI50 up to about 1.1 µM and inactive = higher.
Experiments:
Experiment in all cases: NCI tumour cell line growth inhibition, 48 h
DU-145 = test system: DU-145
HOP-92 = test system: HOP-92
HT-29 = test system: HT-29
IGROV-1 = test system: IGROV-1
KM12 = test system: KM12
MDA-MB-231 = test system: MDA-MB-231
Malme-3M = test system: Malme-3M
NCI-H460 = test system: NCI-H460
NCI-H522 = test system: NCI-H522
OVCAR-8 = test system: OVCAR-8
RXF 393 = test system: RXF 393
SF-268 = test system: SF-268
SF-295 = test system: SF-295
SF-539 = test system: SF-539
SK-MEL-5 = test system: SK-MEL-5
SK-OV-3 = test system: SK-OV-3
SN12C = test system: SN12C
T47D = test system: T47D
U-251 = test system: U-251
UACC-257 = test system: UACC-257

Structure (SMILES)	GI50 (DU-145)	GI50 (HOP-92)	GI50 (HT-29)	GI50 (IGROV-1)	GI50 (KM12)	GI50 (MDA-MB-231)	GI50 (Malme-3M)	GI50 (NCI-H460)	GI50 (NCI-H522)	GI50 (OVCAR-8)	GI50 (RXF 393)	GI50 (SF-268)	GI50 (SF-295)	GI50 (SF-539)	GI50 (SK-MEL-5)	GI50 (SK-OV-3)	GI50 (SN12C)	GI50 (T47D)	GI50 (U-251)	GI50 (UACC-257)
CCCCCCCCCCCCN(CC(O)C(O)C(OC1OC(CO)C(O)C(O)C1O)C(O)CO)C(=O)CCCCCCCCCCC (stereo not given)	20.6 µM (inactive)	21.9 µM (inactive)	19 µM (inactive)	19.9 µM (inactive)	20.2 µM (inactive)	22.6 µM (inactive)	18.5 µM (inactive)	20.5 µM (inactive)	24.1 µM (inactive)	23 µM (inactive)	26.9 µM (inactive)	20.1 µM (inactive)	19 µM (inactive)	39.8 µM (inactive)	17.5 µM (inactive)	22.3 µM (inactive)	22.1 µM (inactive)	28.1 µM (inactive)	18.6 µM (inactive)	20.9 µM (inactive)
CC(C)CCC1(CCN)C(=O)NC(=O)NC1=O	> 100 µM (inactive)	> 100 µM (inactive)	> 100 µM (inactive)	> 100 µM (inactive)	> 100 µM (inactive)	> 100 µM (inactive)	> 100 µM (inactive)	> 100 µM (inactive)	> 100 µM (inactive)	> 100 µM (inactive)	> 100 µM (inactive)	> 100 µM (inactive)	> 100 µM (inactive)	> 100 µM (inactive)	> 100 µM (inactive)	> 100 µM (inactive)	> 100 µM (inactive)	> 100 µM (inactive)	> 100 µM (inactive)	> 100 µM (inactive)
O=C1OC(OC/C(Br)=C(\Br)COC2OC(=O)C(Cl)=C2Cl)C(Cl)=C1Cl (stereo not given)	15.1 µM (inactive)	1.05 µM (active)	2.55 µM (inactive)	12.3 µM (inactive)	15.2 µM (inactive)	4.74 µM (inactive)	2.55 µM (inactive)	13.2 µM (inactive)	1.71 µM (inactive)	2.4 µM (inactive)	2.39 µM (inactive)	8.43 µM (inactive)	18.3 µM (inactive)	6.89 µM (inactive)	8.83 µM (inactive)	22.2 µM (inactive)	5.64 µM (inactive)	12.6 µM (inactive)	4.58 µM (inactive)	9.68 µM (inactive)
